Measured values as given in a melting point compilation (Tetko et al.; mined from patent text by program, amines drawn as free bases though some values may be those of a salt).

SMILES | melting point
Cc1ccccc1N1CCN(CC(O)c2ccc(N3CCCNC3=O)cc2)CC1 (centres undefined) | 234 to 235 °C
CCOC(=O)C1=C(N(C)C)N=C(C)C(C(=O)OCC)C1c1ccccc1C#N (centres undefined) | 129 °C
O=Cc1c(Br)n(C2OC(CO)C(O)C2O)c2cc(Cl)c(Cl)cc12 (centres undefined) | 210 to 211 °C
Cc1nc2c(s1)C=Cc1cc(Cl)ccc1C2c1cn(C)c(=O)[nH]c1=S (centres undefined) | 305 °C
COC(=O)CC(=O)c1cc(OC)c2c(c1)OCO2 | 65.5 to 66.5 °C
CC(C)C(=O)OC1(C(=O)CO)CCC2C3CC(C)C4=CC(=O)CCC4(C)C3C(O)CC21C (centres undefined) | 191 °C
CC(Oc1ccc2nc(NC(=O)NCCN3CCC(Cc4ccccc4)CC3)sc2c1)c1c(Cl)ccc(F)c1Cl (centres undefined) | 133 to 139 °C
O=C(c1ccccc1)N1CCSc2cccc(Cl)c2C1 | 64 to 72 °C
COC(=O)C1CCC2C3CCC4CC(O)CCC4(C)C3C(N)CC12C (centres undefined) | 113 to 116 °C
N=C(N)Nc1nc(-c2ccccc2[N+](=O)[O-])cs1 | 176 to 178 °C
Cc1nc(OC(C)C(=O)O)nn1-c1ccccc1 (centres undefined) | 157 to 159 °C
CN1C(=N)N(c2ccc(Cl)cc2)CC1=O | 182 to 184 °C
COC(=O)c1cc(O)c(O)c(OC)c1 | 110 to 111 °C
CC(C)(C)CC(NC(=O)c1ccc(C(F)(F)F)cc1)NC(=NS(=O)(=O)C(F)(F)F)Nc1cccnc1 (centres undefined) | 192 to 193 °C
CN(C)NC(=O)NC(C(=O)O)c1cccs1 (centres undefined) | 208 to 210 °C
c1ccc2c(Nc3ccc4c(c3)CCC4)ncc(Sc3ccncc3)c2c1 | 100 to 103 °C
O=C(O)c1cc(Br)cnc1O | 245 °C
Cc1c(C(=O)O)cnn1-c1ccc(F)cc1F | 183 to 184 °C
Cc1cc2nc(C)c(=O)[nH]c2cc1C | 306 to 308 °C
Cc1cc(Nc2ccnc(Nc3ccc(S(=O)(=O)N(CCN)C4CCNCC4)cc3)n2)ccc1F | 134 to 135 °C
COc1ccc(C(c2ccc(F)cc2)C(c2ccc(OC)cc2)C(F)(F)F)cc1 (centres undefined) | 132 to 135 °C
Cc1ccc(-c2cc(OCC(=O)N3CCSCC3)c3c(C(F)(F)F)cccc3n2)cc1 | 154 °C
CCCCn1c(=O)c2cc(C(=O)OCC)cn2c2cc(Cl)c(Cl)cc21 | 179 to 180 °C
CC1(C)CCC(C)(C)c2cc(C#CCO)ccc21 | 84 to 85 °C
O=C(O)c1nc2c(=O)[nH]c3cc(C(F)(F)F)ccc3n2c1Cn1cnc(Cl)c1Cl | 213 to 215 °C

SMILES | melting point
CC1=C(C(=O)NC(C)(C)C)C(c2ccccc2Cl)C(C(=O)OC(C)C)=C(COCCCc2nc3ccccc3n2C)N1 (centres undefined) | 216 °C
COC(=O)[C@](C)(Cc1ccc(N(C(=O)OC(C)(C)C)C(=O)C2CCNCC2)cc1)n1nnnc1C1CCCN1S(=O)(=O)c1ccc(C)cc1 (some centres undefined) | 92 to 102 °C
O=C1CC(N2Cc3ccc(F)cc3NC2=O)C(=O)N1 (centres undefined) | 283 to 285 °C
CCOc1ccc(S(=O)(=O)NCc2ccccn2)cc1-c1nc2cccnc2c(=O)[nH]1 | 230 to 231 °C
CCOCc1nc2c(N)nc3ccccc3c2n1CCOCCNC(=O)N1CCOCC1 | 178 to 181 °C
OC1(c2ccc(Cl)c(Cl)c2)CCNCC1 | 144 to 146 °C
O=[N+]([O-])c1cc(-c2ccoc2)ccc1Nc1cc(-n2ccnc2)ncn1 | 198 to 200 °C
COc1cc(C(=O)N2CCCCc3cc(Cl)ccc32)ccc1OCc1ccccc1Cl | 135 °C
O=C1CCC(n2cnc3ccc(Br)cc3c2=O)C(=O)N1 (centres undefined) | 273 to 275 °C
O=P1(c2ccc(-c3ccccc3)cc2)c2ccccc2CN1c1ccccc1 (centres undefined) | 259 to 261 °C
Cc1cncc(-c2ccc3c(=O)c(C(=O)O)cn(C4CC4)c3c2C)c1 | 232 °C
CCOC(=O)c1cccc(-c2nc(-c3cc(Cl)sc3Cl)cs2)c1 | 125 to 126 °C
CN1CCC(N(C)S(=O)(=O)c2ccc(Nc3nccc(Nc4cc(F)c(F)c(F)c4)n3)cc2)CC1 | 227 °C
O=Cc1cc(Cl)ccc1Sc1ccccc1F | 85.5 to 88 °C
C=CCN1c2ccccc2-c2noc3c2C1CCC3 (centres undefined) | 114 to 117 °C
CCc1cc(CC)c(NC(=S)NC2CCCCC2)c(CC)c1 | 97 to 99 °C
CCOC(=O)CC(=Cn1cc[nH]c1=O)c1ccc(OC)c(OC2CCCC2)c1 | 164 °C
O=C(O)c1ccnc(-c2cccc3cc(Cc4cc(F)cc(Cl)c4)sc23)c1 | 205 to 206 °C
Cc1cc(C(=O)N2Cc3cccn3Cc3ccccc32)ccc1C1=CCCCC1C (centres undefined) | 132 to 133 °C
CC1(CSC#N)SC2C(NC(=O)Cc3ccccc3)C(=O)N2C1C(=O)OCC(Cl)(Cl)Cl (centres undefined) | 133 to 135 °C
O=C(O)c1cc(-c2ccccc2S(=O)(=O)Cl)c2ccc3c(-c4ccccc4S(=O)(=O)Cl)cc(C(=O)O)nc3c2n1 | > 300 °C
COc1c(C2CCN(CCCCNC(=O)c3ccc(-c4ccc(Cl)cc4)cc3)CC2)ccc2ccccc12 | 197 °C
CC(Cl)(Cl)C(NC(=O)c1cc(F)cc(F)c1)NC(=NC#N)Nc1cccnc1 (centres undefined) | 191 to 193 °C
Cc1oc(-c2ccccc2)nc1CCC(=O)c1ccc(Br)cc1 | 80 to 81 °C
